# Patent US20230295130A1, “COMPOUND USEFUL AS CDK7 KINASE INHIBITOR AND USE THEREOF” (TYK MEDICINES, INC., priority 2020, published 2023)
# How the values were obtained:
# [1] = tested on: ovarian cancer cells A2780; experiment: Cell anti-proliferation experiment, MTT (Table 2); assay type: cell-based, human; conditions: Homo sapiens, A2780, 72 h, incubate 3 days
# Text: (§1) Human breast cancer cells MDA-MB 231, MDA-MB453, ovarian cancer cells OVCAR3 and A2780, colorectal cancer cells HCT-116 and WiDr, and lung cancer cell Calu-6 were purchased from BNCC. DMEM medium (Bio-Channel), DMSO (dimethyl sulfoxide), MTT (thiazole blue), 0.25% EDTA-Tripsin (pancreatin digestive juice), 1×PBS (phosphate buffer, PH7.2), 96-well plate (Corning), fetal bovine serum (FBS), 10,000 U/mL penicillin-G/streptomycin, high-speed freezing centrifuge (EPPENDORF 5810R), enzyme-linked immunosorbent assay (Tecan Spark).
# (§2) 1. Cell Plating • A) Tumor cells were cultured to 80-90% density in DMEM (high sugar, containing 10% FBS and 100 U/mL penicillin-G/streptomycin) at 37° C., 5% CO2 and saturated humidity. • B) The culture medium was removed from the 10 cm culture dish. • C) Cells were washed with 10 ml 1×PBS. • D) 4 ml of 0.25% EDTA-Tripsin was added to an incubator to digest pancreatin for 5 minutes at 37° C. and 5% CO2, transferred to a 15 ml centrifuge tube, centrifuged for 5 minutes at 200 g, and supernatant was discarded to obtain cell precipitation. • E) The cell precipitation was resuspended with 4 ml DMEM medium, counted and adjusted to 50,000 cells/ml. • F) Cell suspension was added to a 96-well plate with a volume of 100 μL per well and cultured overnight in a 5% CO2 incubator at 37° C.
# (§3) Compound Dilution • A) Preparing the tested compound gradient dilution solution: the tested compounds were prepared into 10 mM and 1 mM storage solution respectively. Firstly, 1 μl and 0.5 μl of 10 mM storage solution were dissolved in 1 ml of DMSO-free culture solution, respectively, to obtain diluted compounds with concentrations of 10 and 5 μM. Then, 1.5 μl of 1 mM storage solution was dissolved in 1.5 ml of DMSO-free culture solution to obtain a dilution compound with a concentration of 1 μM, and then diluted with a 3-fold continuous gradient with […] culture solution for a total of 7 concentrations. The concentrations of all 10 diluted compounds mentioned above were as follows: • 10 μM, 5 μM, 1 μM, 333.33 nM, 111.11 nM, 37.03 nM, 12.35 nM, 4.15 nM, 1.37 nM, 0.46 nM • B) After full mixing, 100 μL of culture compound solution was taken to replace the culture solution in the cell culture plate, with 4 duplicated wells at each concentration; • C) The cells were transferred to incubator to incubate for 3 days.
# (§4) 3. MTT Detection • A) The cell culture plate was taken out and added with 5 mg/ml MTT 10 μL in the biosafety cabinet; • B) The cell culture plate was put back into the incubator and continued to incubate for 3 hours; • C) The cell culture plate was taken out to remove the culture solution, 100 μL isopropanol (containing 0.4 mM HCl, 0.1% NP-40) was added, shaking at room temperature for 30 minutes; • D) The absorbance value was measured at 570 nm on TECAN enzyme linked immunosorbent assay.
# [2] = tested on: colorectal cancer cells WiDr; experiment: Cell anti-proliferation experiment, MTT (Table 2); assay type: cell-based, human; conditions: Homo sapiens, WiDr, 72 h, incubate 3 days
# Text: as §1, §2, §3, §4
# CDK2/Cyclin El = CDK2/Cyclin El (Homo sapiens (Human), UniProt P24941); experiment: Enzyme activity test, mobility shift assay (Table 1); assay type: biochemical; conditions: 2 mM ATP; read-out: CDK2 kinase IC50
# Method in brief: (§5)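 Human CDK9/Cyclin T1 and CDK2/Cyclin E1 activity measured by mobility shift assay. Compounds tested as 10-point, 3-fold dilution series starting at 0.5 mM (diluted from 10 mM DMSO stock), in duplicate, with 0 min or 60 min compound–enzyme pre-incubation.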
# CDK9/Cyclin Tl = CDK9/Cyclin Tl (Homo sapiens (Human), UniProt P50750); experiment: as above; assay type: biochemical; conditions: 2 mM ATP; read-out: CDK9 kinase IC50
# Method in brief: as §5
# [3] = target: CDK12 (aa686-1082)/Cyclin K (Homo sapiens (Human), UniProt Q9NYV4); experiment: as above; assay type: biochemical; conditions: 2 mM ATP; read-out: CDK12 kinase IC50
# Method in brief: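 Mobility shift kinase assay on CDK9/Cyclin T1 and CDK12 (aa686-1082)/Cyclin K. Ten-point 3-fold dilution series started from a 0.5 mM intermediate solution in DMSO, with compound–enzyme pre-incubation of 0 or 60 min, in duplicate. Staurosporine served as positive control.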
# [4] = target: CDK7/Cyclin H/MAT1 kinase (Homo sapiens (Human), UniProt P50613); experiment: as above; assay type: biochemical; conditions: 2 mM ATP; pre-incubated 0 and 60 minutes
# [5] = tested on: ovarian cancer cells OVCAR3; experiment: Cell anti-proliferation experiment, MTT (Table 2); assay type: cell-based; conditions: Homo sapiens, OVCAR-3, 72 h, incubate 3 days
# Text: as §1, §2, §3, §4
# lung cancer cell Calu-6 = experiment: Cell anti-proliferation experiment, MTT (Table 2); assay type: cell-based; conditions: Homo sapiens, Calu-6, 72 h, incubate 3 days
# Text: as §1, §2, §3, §4
# [6] = tested on: colorectal cancer cells HCT-116; experiment: Cell anti-proliferation experiment, MTT (Table 2); assay type: cell-based; conditions: Homo sapiens, HCT-116, 72 h, incubate 3 days
# Text: as §1, §2, §3, §4
# [7] = tested on: breast cancer cells MDA-MB 231; experiment: Cell anti-proliferation experiment, MTT (Table 2); assay type: cell-based; conditions: Homo sapiens, MDA-MB-231, 72 h, incubate 3 days
# Text: as §1, §2, §3, §4
# [8] = tested on: breast cancer cells MDA-MB453; experiment: Cell anti-proliferation experiment, MTT (Table 2); assay type: cell-based; conditions: Homo sapiens, MDA-MB-453, 72 h, incubate 3 days
# Text: as §1, §2, §3, §4
# Chain of CDK12 (aa686-1082)/Cyclin K (Q9NYV4 686-1082): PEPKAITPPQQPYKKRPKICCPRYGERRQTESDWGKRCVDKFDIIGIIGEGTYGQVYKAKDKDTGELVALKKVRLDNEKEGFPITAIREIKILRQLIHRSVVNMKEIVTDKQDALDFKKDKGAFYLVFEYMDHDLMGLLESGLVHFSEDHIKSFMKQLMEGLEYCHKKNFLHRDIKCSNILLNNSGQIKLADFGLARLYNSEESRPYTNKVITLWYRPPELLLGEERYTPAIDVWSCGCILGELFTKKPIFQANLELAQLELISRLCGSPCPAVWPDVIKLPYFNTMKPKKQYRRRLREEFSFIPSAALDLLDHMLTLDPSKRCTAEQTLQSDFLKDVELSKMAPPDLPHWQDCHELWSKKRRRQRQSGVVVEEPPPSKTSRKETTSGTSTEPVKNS
# Chain of CDK12 (aa686-1082)/Cyclin K (O75909 whole entry partner, the tested form may be a part): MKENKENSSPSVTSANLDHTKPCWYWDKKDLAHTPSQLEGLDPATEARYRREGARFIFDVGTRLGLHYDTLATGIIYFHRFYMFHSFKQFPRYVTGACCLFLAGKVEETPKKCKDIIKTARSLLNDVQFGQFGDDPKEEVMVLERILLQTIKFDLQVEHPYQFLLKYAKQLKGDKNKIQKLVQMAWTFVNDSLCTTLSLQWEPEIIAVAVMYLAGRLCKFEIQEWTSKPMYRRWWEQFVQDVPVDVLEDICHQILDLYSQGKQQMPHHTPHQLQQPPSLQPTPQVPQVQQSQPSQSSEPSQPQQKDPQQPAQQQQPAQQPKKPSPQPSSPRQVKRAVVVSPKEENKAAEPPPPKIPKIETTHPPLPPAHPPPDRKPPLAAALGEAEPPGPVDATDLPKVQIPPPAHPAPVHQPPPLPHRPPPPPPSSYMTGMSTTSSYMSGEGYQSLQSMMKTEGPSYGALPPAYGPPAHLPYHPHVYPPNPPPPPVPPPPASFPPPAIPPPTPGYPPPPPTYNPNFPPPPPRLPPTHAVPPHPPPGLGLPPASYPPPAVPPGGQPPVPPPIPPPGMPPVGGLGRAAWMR
# Chain of CDK7/Cyclin H/MAT1 kinase (P50613 whole entry): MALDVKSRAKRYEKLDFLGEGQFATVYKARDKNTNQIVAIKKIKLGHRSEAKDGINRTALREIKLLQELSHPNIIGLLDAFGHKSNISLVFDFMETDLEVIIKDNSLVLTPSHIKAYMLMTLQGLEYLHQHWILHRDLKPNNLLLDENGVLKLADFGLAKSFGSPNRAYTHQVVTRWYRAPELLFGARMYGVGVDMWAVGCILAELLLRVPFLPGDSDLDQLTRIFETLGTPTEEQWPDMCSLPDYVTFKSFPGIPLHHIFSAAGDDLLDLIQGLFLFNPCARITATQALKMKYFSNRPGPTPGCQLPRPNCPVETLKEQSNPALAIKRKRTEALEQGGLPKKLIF
# Chain of CDK7/Cyclin H/MAT1 kinase (P51946 whole entry partner): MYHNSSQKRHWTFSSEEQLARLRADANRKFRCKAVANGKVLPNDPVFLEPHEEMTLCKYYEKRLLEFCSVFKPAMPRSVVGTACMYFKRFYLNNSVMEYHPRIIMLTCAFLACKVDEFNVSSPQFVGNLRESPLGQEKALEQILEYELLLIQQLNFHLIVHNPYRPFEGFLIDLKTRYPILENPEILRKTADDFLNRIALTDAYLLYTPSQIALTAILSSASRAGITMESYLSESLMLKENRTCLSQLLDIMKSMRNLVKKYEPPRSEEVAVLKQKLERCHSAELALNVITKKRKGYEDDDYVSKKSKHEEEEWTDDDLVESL
# Chain of CDK7/Cyclin H/MAT1 kinase (P51948 whole entry partner): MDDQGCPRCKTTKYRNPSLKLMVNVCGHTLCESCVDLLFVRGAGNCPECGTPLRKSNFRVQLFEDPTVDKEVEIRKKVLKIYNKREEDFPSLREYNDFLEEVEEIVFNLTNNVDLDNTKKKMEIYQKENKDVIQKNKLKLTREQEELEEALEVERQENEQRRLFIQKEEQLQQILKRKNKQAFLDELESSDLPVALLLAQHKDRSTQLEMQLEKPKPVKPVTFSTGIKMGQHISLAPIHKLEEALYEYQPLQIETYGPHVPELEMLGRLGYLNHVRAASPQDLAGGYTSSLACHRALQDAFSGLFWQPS
# Chain of CDK9/Cyclin Tl (P50750 whole entry): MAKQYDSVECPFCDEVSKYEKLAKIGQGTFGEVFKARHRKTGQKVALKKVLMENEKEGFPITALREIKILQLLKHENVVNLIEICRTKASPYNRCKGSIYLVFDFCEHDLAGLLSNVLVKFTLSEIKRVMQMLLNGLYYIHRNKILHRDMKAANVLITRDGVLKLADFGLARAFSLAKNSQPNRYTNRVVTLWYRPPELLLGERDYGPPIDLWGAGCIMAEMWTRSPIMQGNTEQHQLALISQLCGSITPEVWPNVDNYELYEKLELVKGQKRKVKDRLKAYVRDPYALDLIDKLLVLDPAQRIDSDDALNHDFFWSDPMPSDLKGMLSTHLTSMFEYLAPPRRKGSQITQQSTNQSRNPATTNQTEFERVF
# Chain of CDK9/Cyclin Tl (O60563 whole entry partner): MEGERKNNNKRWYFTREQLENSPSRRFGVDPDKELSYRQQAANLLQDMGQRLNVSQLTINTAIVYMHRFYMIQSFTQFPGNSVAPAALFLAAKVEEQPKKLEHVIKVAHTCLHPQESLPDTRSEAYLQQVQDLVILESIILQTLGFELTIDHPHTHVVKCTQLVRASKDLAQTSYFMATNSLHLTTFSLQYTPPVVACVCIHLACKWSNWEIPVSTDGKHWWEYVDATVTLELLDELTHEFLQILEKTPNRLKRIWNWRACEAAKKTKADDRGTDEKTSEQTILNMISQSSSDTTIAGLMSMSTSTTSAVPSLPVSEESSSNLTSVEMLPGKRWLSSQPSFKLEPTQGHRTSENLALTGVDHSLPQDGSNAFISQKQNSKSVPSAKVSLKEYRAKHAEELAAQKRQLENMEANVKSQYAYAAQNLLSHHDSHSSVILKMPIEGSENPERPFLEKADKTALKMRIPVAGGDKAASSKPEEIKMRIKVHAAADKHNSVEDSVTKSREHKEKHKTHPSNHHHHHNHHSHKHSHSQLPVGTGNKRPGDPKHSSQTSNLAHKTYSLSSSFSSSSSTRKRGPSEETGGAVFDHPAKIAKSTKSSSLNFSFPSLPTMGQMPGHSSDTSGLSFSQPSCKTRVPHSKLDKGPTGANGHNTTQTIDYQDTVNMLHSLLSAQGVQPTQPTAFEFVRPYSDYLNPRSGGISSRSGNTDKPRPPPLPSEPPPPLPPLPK
IC50 [1] [nM],IC50 [2] [nM],IC50 (CDK2/Cyclin El) [nM],IC50 (CDK9/Cyclin Tl) [nM],IC50 [3] [nM],IC50 [4] [nM],IC50 [5] [nM],IC50 (lung cancer cell Calu-6) [nM],IC50 [6] [nM],IC50 [7] [nM],IC50 [8] [nM],Compound
7.97,12.2,> 500,> 500,> 500,< 50,41.8,68.9,62.5,145,51.9,COC(=O)Nc1ccc2c(-c3nc(N[C@H]4CCCNC4)ncc3C(F)(F)F)c[nH]c2c1Br [Example T-01]
7.65,13.8,50 to 500,> 500,> 500,< 50,25.1,40.1,47.8,52.7,10.8,COC(=O)Nc1ccc2c(-c3nc(N[C@H]4CCCNC4)ncc3C(F)(F)F)c[nH]c2c1OC [Example T-37]
12.3,22.2,> 500,> 500,> 500,< 50,98.4,110,137,181,77.9,CCOC(=O)Nc1ccc2c(-c3nc(N[C@H]4CCCNC4)ncc3C(F)(F)F)c[nH]c2c1Br [Example T-42]
16.1,28.3,> 500,> 500,> 500,< 50,51.1,107,89.2,119,17.7,COC(=O)Nc1ccc2c(-c3nc(N[C@H]4CCCNC4)ncc3C(F)(F)F)c[nH]c2c1C [Example T-52]
12.5,6.35,> 500,> 500,> 500,< 50,38.8,57,55.4,75.5,23.8,COCCOC(=O)Nc1ccc2c(-c3nc(N[C@H]4CCCNC4)ncc3C(F)(F)F)c[nH]c2c1Br [Example T-62]
14.2,16.3,> 500,> 500,> 500,< 50,69.8,114,35.3,144,53.1,COC(=O)Nc1ccc2c(-c3nc(N[C@H]4CCCNC4)ncc3C(F)(F)F)c[nH]c2c1Cl [Example T-79]
